Test results taken from patent US20090270379A1, “QUINOLONE DERIVATIVES USEFUL AS ANTIBACTERIAL AGENTS” (priority 2008, published 2009).
Converted amounts (≈) assume the structure as drawn.

Experiments:
Type in all cases: cell-based
[1] = system: Staphylococcus aureus OC4172; assay: In vitro antibacterial activity (MIC), microdilution broth method, strain A; details: cation adjusted Mueller-Hinton broth, 35° C., 16-20 hours
Experimental: (§1) Minimal inhibitory concentration (MIC) is an indicator of in vitro antibacterial activity. […] The in vitro antimicrobial activity of representative compounds of the present invention was determined by the microdilution broth method following the test method from the National Committee for Clinical Laboratory Standards (NCCLS). This method is described in the NCCLS Document M7-A4, Vol. 17, No. 2, “Methods for Dilution Antimicrobial Susceptibility Test for Bacteria that Grow Aerobically—Fourth Edition”, which is incorporated herein by reference.
(§2) In this method two-fold serial dilutions of drug in cation adjusted Mueller-Hinton broth were added to wells in microdilution trays. The test organisms were prepared by adjusting the turbidity of actively growing broth cultures so that the final concentration of test organism after it is added to the wells was approximately 5×10^4 CFU/well. Following inoculation of the microdilution trays, the trays were incubated at 35° C. for 16-20 hours and then read. The amount of growth in the wells containing the test compound was compared with the amount of growth in the growth-control wells (no test compound) used in each tray.
(§3) Representative compounds of the present invention were tested against a variety of pathogenic bacteria with results as listed in Table 3, below.

[2] = system: strain B, fluoroquinolone-resistant clinical isolate of Streptococcus pneumoniae; assay: In vitro antibacterial activity (MIC), microdilution broth method, strain B; details: read-out: MIC (μg/mL) B
Experimental: as §1, §2, §3

[3] = system: strain C, fluoroquinolone-resistant clinical isolate of Streptococcus pneumoniae; assay: In vitro antibacterial activity (MIC), microdilution broth method, strain C; details: read-out: MIC (μg/mL) C
Experimental: as §1, §2, §3

[4] = system: strain D, fluoroquinolone-resistant clinical isolate of Streptococcus pneumoniae; assay: In vitro antibacterial activity (MIC), microdilution broth method, strain D; details: read-out: MIC (μg/mL) D
Experimental: as §1, §2, §3

[5] = system: Streptococcus pneumoniae ATCC 49619; assay: In vitro antibacterial activity (MIC), microdilution broth method, strain E; details: ATCC49619, 35° C., 16-20 hours
Experimental: as §1, §2, §3

Row | SMILES | MIC [1] [µg/mL] | MIC [2] [µg/mL] | MIC [3] [µg/mL] | MIC [4] [µg/mL] | MIC [5] [µg/mL]
1 | O=C(O)c1cn(C2CC2)c2c(OC(F)F)c(-c3cc4n(c3)CCNC4)ccc2c1=O [Compound 1, 1-Cyclopropyl-8-difluoromethoxy-4-oxo-7-(1,2,3,4-tetrahydro-pyrrolo[1,2-a]pyrazin-7-yl)-1,4-dihydro-quinoline-3-carboxylic acid] | 0.06 (≈ 0.144 µM) | 1 (≈ 2.41 µM) | 8 (≈ 19.3 µM) | 8 (≈ 19.3 µM) | 0.5 (≈ 1.2 µM)
2 | O=C(O)c1cn(C2CC2)c2c(OC(F)F)c(C3=C[C@H]4CN(Cc5ccccc5)CCN4C3)ccc2c1=O [Compound 2, 7-(2-Benzyl-1,2,3,4,6,8a-hexahydro-pyrrolo[1,2S-a]pyrazin-7-yl)-1-cyclopropyl-8-difluoromethoxy-4-oxo-1,4-dihydro-quinoline-3-carboxylic acid] | 0.5 (≈ 0.985 µM) | > 16 | > 16 | > 16 | 8 (≈ 15.8 µM)
3 | O=C(O)c1cn(C2CC2)c2c(OC(F)F)c(C3C[C@H]4CNCCN4C3)ccc2c1=O (stereo partly drawn) [Compound 3, 1-Cyclopropyl-8-difluoromethoxy-7-(octahydro-pyrrolo[1,2S-a]pyrazin-7-yl)-4-oxo-1,4-dihydro-quinoline-3-carboxylic acid] | 8 (≈ 19.1 µM) | > 16 | > 16 | > 16 | > 16
4 | CN1CCn2cc(-c3ccc4c(=O)c(C(=O)O)cn(C5CC5)c4c3OC(F)F)cc2C1 [Compound 4, 1-Cyclopropyl-8-difluoromethoxy-7-(2-methyl-1,2,3,4-tetrahydro-pyrrolo[1,2-a]pyrazin-7-yl)-4-oxo-1,4-dihydro-quinoline-3-carboxylic acid] | 0.25 (≈ 0.582 µM) | 2 (≈ 4.66 µM) | > 16 | > 16 | 2 (≈ 4.66 µM)
5 | CN1CCN2CC(c3ccc4c(=O)c(C(=O)O)cn(C5CC5)c4c3OC(F)F)C[C@H]2C1 (stereo partly shown) [Compound 5, 1-Cyclopropyl-8-difluoromethoxy-7-(2-methyl-octahydro-pyrrolo[1,2s-a]pyrazin-7-yl)-4-oxo-1,4-dihydro-quinoline-3-carboxylic acid] | 8 (≈ 18.5 µM) | > 16 | > 16 | > 16 | > 16
6 | C[C@H]1CN2CC(c3ccc4c(=O)c(C(=O)O)cn(C5CC5)c4c3OC(F)F)C[C@H]2CN1 (stereo partly drawn) [Compound 6, 1-Cyclopropyl-8-difluoromethoxy-7-(3S-methyl-octahydro-pyrrolo[1,2S-a]pyrazin-7-yl)-4-oxo-1,4-dihydro-quinoline-3-carboxylic acid] | 4 (≈ 9.23 µM) | > 16 | > 16 | > 16 | > 16
7 | C[C@H]1Cn2cc(-c3ccc4c(=O)c(C(=O)O)cn(C5CC5)c4c3OC(F)F)cc2CN1 [Compound 7, 1-Cyclopropyl-8-difluoromethoxy-7-(3S-methyl-1,2,3,4-tetrahydro-pyrrolo[1,2-a]pyrazin-7-yl)-4-oxo-1,4-dihydro-quinoline-3-carboxylic acid] | 0.12 (≈ 0.279 µM) | 1 (≈ 2.33 µM) | 8 (≈ 18.6 µM) | 16 (≈ 37.3 µM) | 1 (≈ 2.33 µM)
8 | C[C@@H]1NCCn2cc(-c3ccc4c(=O)c(C(=O)O)cn(C5CC5)c4c3OC(F)F)cc21 [Compound 8, 1-Cyclopropyl-8-difluoromethoxy-7-(1S-methyl-1,2,3,4-tetrahydro-pyrrolo[1,2-a]pyrazin-7-yl)-4-oxo-1,4-dihydro-quinoline-3-carboxylic acid] | 0.5 (≈ 1.16 µM) | 4 (≈ 9.31 µM) | 16 (≈ 37.3 µM) | > 16 | 1 (≈ 2.33 µM)
9 | C[C@H]1NCCn2cc(-c3ccc4c(=O)c(C(=O)O)cn(C5CC5)c4c3OC(F)F)cc21 [Compound 9, 1-Cyclopropyl-8-difluoromethoxy-7-(1R-methyl-1,2,3,4-tetrahydro-pyrrolo[1,2-a]pyrazin-7-yl)-4-oxo-1,4-dihydro-quinoline-3-carboxylic acid] | 0.5 (≈ 1.16 µM) | 4 (≈ 9.31 µM) | 16 (≈ 37.3 µM) | > 16 | 1 (≈ 2.33 µM)
10 | CN[C@@H](C)C(=O)N1CCn2cc(-c3ccc4c(=O)c(C(=O)O)cn(C5CC5)c4c3OC(F)F)cc2C1 [Compound 10, 1-Cyclopropyl-8-difluoromethoxy-7-[2S-(2-methylamino-propionyl)-1,2,3,4-tetrahydro-pyrrolo[1,2-a]pyrazin-7-yl]-4-oxo-1,4-dihydro-quinoline-3-carboxylic acid] | 0.25 (≈ 0.499 µM) | 4 (≈ 7.99 µM) | 16 (≈ 32 µM) | > 16 | 2 (≈ 4 µM)
11 | COc1c(-c2cc3n(c2)C[C@H](C)NC3)c(F)cc2c(=O)c(C(=O)O)cn(C3CC3)c12 [Compound 11, 1-Cyclopropyl-6-fluoro-8-methoxy-7-(3S-methyl-1,2,3,4-tetrahydro-pyrrolo[1,2-a]pyrazin-7-yl)-4-oxo-1,4-dihydro-quinoline-3-carboxylic acid] | 0.03 (≈ 0.0729 µM) | 0.5 (≈ 1.22 µM) | 1 (≈ 2.43 µM) | 4 (≈ 9.72 µM) | 0.12 (≈ 0.292 µM)
12 | COc1c(-c2cc3n(c2)C[C@@H](C)NC3)c(F)cc2c(=O)c(C(=O)O)cn(C3CC3)c12 [Compound 12, 1-Cyclopropyl-6-fluoro-8-methoxy-7-(3R-methyl-1,2,3,4-tetrahydro-pyrrolo[1,2-a]pyrazin-7-yl)-4-oxo-1,4-dihydro-quinoline-3-carboxylic acid] | 0.03 (≈ 0.0729 µM) | 1 (≈ 2.43 µM) | 2 (≈ 4.86 µM) | 8 (≈ 19.4 µM) | 0.25 (≈ 0.608 µM)
13 | COc1c(-c2cc3n(c2)C[C@H](C)N(C)C3)c(F)cc2c(=O)c(C(=O)O)cn(C3CC3)c12 [Compound 13, 1-Cyclopropyl-7-(2,3S-dimethyl-1,2,3,4-tetrahydro-pyrrolo[1,2-a]pyrazin-7-yl)-6-fluoro-8-methoxy-4-oxo-1,4-dihydro-quinoline-3-carboxylic acid] | 0.12 (≈ 0.282 µM) | 0.5 (≈ 1.18 µM) | 4 (≈ 9.4 µM) | 8 (≈ 18.8 µM) | 0.5 (≈ 1.18 µM)
14 | COc1c(-c2cc3n(c2)C[C@@H](C)N(C)C3)c(F)cc2c(=O)c(C(=O)O)cn(C3CC3)c12 [Compound 14, 1-Cyclopropyl-7-(2,3R-dimethyl-1,2,3,4-tetrahydro-pyrrolo[1,2-a]pyrazin-7-yl)-6-fluoro-8-methoxy-4-oxo-1,4-dihydro-quinoline-3-carboxylic acid] | 0.25 (≈ 0.588 µM) | 2 (≈ 4.7 µM) | 8 (≈ 18.8 µM) | > 16 | 1 (≈ 2.35 µM)
15 | COc1c(-c2cc3n(c2)C[C@H](CO)N(C)C3)c(F)cc2c(=O)c(C(=O)O)cn(C3CC3)c12 [Compound 15, 1-Cyclopropyl-6-fluoro-7-(3R-hydroxymethyl-2-methyl-1,2,3,4-tetrahydro-pyrrolo[1,2-a]pyrazin-7-yl)-8-methoxy-4-oxo-1,4-dihydro-quinoline-3-carboxylic acid] | 0.12 (≈ 0.272 µM) | 4 (≈ 9.06 µM) | 8 (≈ 18.1 µM) | 16 (≈ 36.2 µM) | 1 (≈ 2.27 µM)
16 | COc1c(-c2cc3n(c2)CCN[C@H]3C)c(F)cc2c(=O)c(C(=O)O)cn(C3CC3)c12 [Compound 16, 1-Cyclopropyl-6-fluoro-8-methoxy-7-(1S-methyl-1,2,3,4-tetrahydro-pyrrolo[1,2-a]pyrazin-7-yl)-4-oxo-1,4-dihydro-quinoline-3-carboxylic acid] | 0.12 (≈ 0.292 µM) | 2 (≈ 4.86 µM) | 4 (≈ 9.72 µM) | 8 (≈ 19.4 µM) | 0.5 (≈ 1.22 µM)
17 | COc1c(-c2cc3n(c2)CCN[C@@H]3C)c(F)cc2c(=O)c(C(=O)O)cn(C3CC3)c12 [Compound 17, 1-Cyclopropyl-6-fluoro-8-methoxy-7-(1R-methyl-1,2,3,4-tetrahydro-pyrrolo[1,2-a]pyrazin-7-yl)-4-oxo-1,4-dihydro-quinoline-3-carboxylic acid] | 0.25 (≈ 0.608 µM) | 8 (≈ 19.4 µM) | 16 (≈ 38.9 µM) | > 16 | 2 (≈ 4.86 µM)
18 | COc1c(-c2cc3n(c2)C[C@H](C)N[C@@H]3C)c(F)cc2c(=O)c(C(=O)O)cn(C3CC3)c12 [Compound 18, 1-Cyclopropyl-7-(1R,3S-dimethyl-1,2,3,4-tetrahydro-pyrrolo[1,2-a]pyrazin-7-yl)-6-fluoro-8-methoxy-4-oxo-1,4-dihydro-quinoline-3-carboxylic acid] | 0.12 (≈ 0.282 µM) | 2 (≈ 4.7 µM) | 8 (≈ 18.8 µM) | 16 (≈ 37.6 µM) | 1 (≈ 2.35 µM)
19 | C[C@H]1Cn2cc(-c3cc4c(cc3F)c(=O)c(C(=O)O)cn4C3CC3)cc2CN1 [Compound 19, 1-Cyclopropyl-6-fluoro-7-(3S-methyl-1,2,3,4-tetrahydro-pyrrolo[1,2-a]pyrazin-7-yl)-4-oxo-1,4-dihydro-quinoline-3-carboxylic acid] | 0.06 (≈ 0.157 µM) | 2 (≈ 5.24 µM) | 4 (≈ 10.5 µM) | > 16 | 0.5 (≈ 1.31 µM)
20 | C[C@H]1Cn2cc(-c3cc4c(cc3F)c(=O)c(C(=O)O)cn4C3CC3)cc2CN1C [Compound 20, 1-Cyclopropyl-7-(2,3S-dimethyl-1,2,3,4-tetrahydro-pyrrolo[1,2-a]pyrazin-7-yl)-6-fluoro-4-oxo-1,4-dihydro-quinoline-3-carboxylic acid] | 0.5 (≈ 1.26 µM) | 4 (≈ 10.1 µM) | 16 (≈ 40.5 µM) | > 16 | 1 (≈ 2.53 µM)
